Source: paper PMC11816722, “GATA3-Driven ceRNA Network in Lung Adenocarcinoma Bone Metastasis Progression and Therapeutic Implications” (Cancers, 2025)

Target: T1, NPRL3 (Homo sapiens, UniProt Q12980)
T1 sequence (Q12980 1-569): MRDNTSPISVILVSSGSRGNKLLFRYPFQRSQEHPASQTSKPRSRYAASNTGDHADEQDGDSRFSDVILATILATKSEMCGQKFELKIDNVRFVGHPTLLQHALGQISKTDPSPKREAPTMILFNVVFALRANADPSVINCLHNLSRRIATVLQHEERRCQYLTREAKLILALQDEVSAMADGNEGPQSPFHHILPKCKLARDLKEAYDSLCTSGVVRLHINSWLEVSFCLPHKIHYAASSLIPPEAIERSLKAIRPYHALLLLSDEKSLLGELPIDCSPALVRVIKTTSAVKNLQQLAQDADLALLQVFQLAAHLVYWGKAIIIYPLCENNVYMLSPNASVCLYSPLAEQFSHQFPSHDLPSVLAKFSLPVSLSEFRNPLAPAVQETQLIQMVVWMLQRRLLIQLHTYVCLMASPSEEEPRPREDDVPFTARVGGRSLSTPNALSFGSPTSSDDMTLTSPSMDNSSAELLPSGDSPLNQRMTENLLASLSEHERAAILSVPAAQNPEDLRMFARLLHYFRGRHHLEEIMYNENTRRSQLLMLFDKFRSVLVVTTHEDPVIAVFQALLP
Test: SPR (Biacore T200, immobilized recombinant NPRL3, steady-state […] fit); supported by DARTS in A549L6 lysate
Assay type: binding

- Kd: 11.8 µM
SMILES: O=c1[nH]nc2c3c(cccc13)N=C(CN1Cc3ccccc3C1)N2 [E7449]
